This note sets out measurements from ChEMBL document CHEMBL1145055, “A novel class of nonpeptidic biaryl inhibitors of human cathepsin K” (J Med Chem, 2003).

Molecules are shown by their SMILES. Where only a bound is given, the exact number is not on record here.

One assay has as its target T1, Cathepsin K (Homo sapiens, UniProt P43235).
T1 sequence (P43235 whole entry): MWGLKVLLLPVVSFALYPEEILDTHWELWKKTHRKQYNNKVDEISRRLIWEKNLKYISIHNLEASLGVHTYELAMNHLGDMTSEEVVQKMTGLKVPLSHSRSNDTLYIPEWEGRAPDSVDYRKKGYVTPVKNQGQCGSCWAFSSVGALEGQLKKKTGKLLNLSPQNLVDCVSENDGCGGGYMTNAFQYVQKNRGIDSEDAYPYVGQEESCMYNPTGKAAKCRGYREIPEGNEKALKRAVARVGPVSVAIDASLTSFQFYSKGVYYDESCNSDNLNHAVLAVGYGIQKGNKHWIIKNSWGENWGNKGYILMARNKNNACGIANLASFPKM
In words: In vitro inhibitory activity against human cathepsin K, using 2 uM of Z -Leu-Arg-AMC as substrate.

The next assay has as its target Cathepsin B (Homo sapiens, UniProt P07858). In words: In vitro inhibitory activity against human cathepsin B, using 2 uM of Z -Leu-Arg-AMC as substrate.
A further assay deals with Procathepsin L (Homo sapiens, UniProt P07711). Nature of the assay: In vitro inhibitory activity against human cathepsin L, using 2 uM of Z -Leu-Arg-AMC as substrate.
In a further assay the target is Cathepsin S (Homo sapiens, UniProt P25774). Nature of the assay: In vitro inhibitory activity against human cathepsin S, using 2 uM of Z -Leu-Arg-AMC as substrate.
The species entered for a further assay is Bos taurus. In words: cells.

Sequence of Cathepsin S (P25774 whole entry): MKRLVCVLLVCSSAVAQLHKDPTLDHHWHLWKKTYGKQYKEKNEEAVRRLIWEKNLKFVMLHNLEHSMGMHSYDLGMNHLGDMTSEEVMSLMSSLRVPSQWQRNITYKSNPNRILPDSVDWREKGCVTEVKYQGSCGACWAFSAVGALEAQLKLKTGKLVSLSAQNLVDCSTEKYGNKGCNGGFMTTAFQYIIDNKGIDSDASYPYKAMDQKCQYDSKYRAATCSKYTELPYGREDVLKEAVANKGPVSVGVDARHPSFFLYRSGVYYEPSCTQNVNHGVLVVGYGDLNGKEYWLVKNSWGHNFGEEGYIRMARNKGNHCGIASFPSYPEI
Sequence of Procathepsin L (P07711 whole entry): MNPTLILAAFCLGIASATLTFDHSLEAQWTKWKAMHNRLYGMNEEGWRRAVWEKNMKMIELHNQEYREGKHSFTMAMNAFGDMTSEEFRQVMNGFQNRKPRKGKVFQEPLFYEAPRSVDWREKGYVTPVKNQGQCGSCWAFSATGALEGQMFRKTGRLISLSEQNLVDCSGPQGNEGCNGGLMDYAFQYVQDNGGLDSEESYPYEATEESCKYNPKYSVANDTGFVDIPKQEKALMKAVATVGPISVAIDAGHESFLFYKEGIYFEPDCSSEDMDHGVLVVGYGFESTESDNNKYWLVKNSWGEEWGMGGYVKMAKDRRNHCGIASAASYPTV
Description for Bos taurus: In vitro Bone resorption; measuring degradation of bovine bone by isolated osteoclasts

Usually IC50 stands for the concentration at which inhibition is half-maximal. High values mean a need for much substance, low ones inhibition by little substance. Regarding `CC(C)CC(C(=O)NCC#N)c1cccc(-c2ccc(N3CCN(C(C)(C)C)CC3)cc2)c1` (stereo unspecified), the IC50 at Cathepsin K came to 0.02 µM; against Cathepsin B, 0.379 µM; against Procathepsin L it was 1.67 µM; against Cathepsin S, 8.34 µM; in the assay listed under Bos taurus it was 0.34 µM.
The like results for `CC(C)CC(C(=O)NCC#N)c1cccc(-c2ccc(C3CCNCC3)cc2)c1` (stereo unspecified) were, in that order, 0.018 µM, 1.07 µM, 2.75 µM, 1.42 µM and 0.489 µM.
Take `CC(C)CC(C(=O)NCC#N)c1cccc(-c2ccc(N3CCN(CCO)CC3)cc2)c1` (stereo unspecified): the IC50 against Cathepsin K came out at 0.012 µM; on Cathepsin B, 3.34 µM; against Procathepsin L, 0.14 µM; against Cathepsin S, 0.609 µM.
With `CC(C)CC(C(=O)NCC#N)c1cccc(-c2ccc(N3CCN(CC(C)(C)N)CC3)cc2)c1` (stereo unspecified), the IC50 at Cathepsin K was 0.016 µM; on Cathepsin B, greater than 10 µM; against Procathepsin L, greater than 10 µM; against Cathepsin S, 1.43 µM; in the assay filed under Bos taurus, 0.552 µM.
Turning to `CC(C)CC(C(=O)NCC#N)c1cccc(-c2ccc3cc[nH]c3c2)c1` (stereo unspecified), the concentration for half-maximal inhibition (IC50) against Cathepsin K is 0.291 µM; on Cathepsin B, greater than 10 µM; at Cathepsin S it was 1.26 µM; in the assay filed under Bos taurus it was 2.78 µM.
`CN1CCN(c2ccc(-c3cccc(C(CC4CC4)C(=O)NCC#N)c3)cc2)CC1` (stereo unspecified): the IC50 against Cathepsin K was 0.065 µM; against Cathepsin B it was 3.43 µM; at Procathepsin L it was greater than 10 µM; at Cathepsin S it was 6.6 µM.
The corresponding values for `CC(C)CC(C(=O)NCC#N)c1cccc(-c2ccc(C(N)=O)cc2)c1` (stereo unspecified) are 1.02 µM, greater than 10 µM, greater than 10 µM and 1.37 µM.
Take `CC(C)C[C@@H](C(=O)NCC#N)c1cccc(-c2ccc(N3CCN(C)CC3)cc2)c1`: the IC50 against Cathepsin K was determined as 0.006 µM; on Cathepsin B, 2.6 µM; against Procathepsin L it was 6.27 µM; against Cathepsin S, 3.93 µM; in the assay filed under Bos taurus it was 0.096 µM.
For `CC(C)CC(C(=O)NCC#N)c1cccc(-c2ccc(N3CCNCC3)cc2)c1` (racemic), the IC50 against Cathepsin K came out at 0.009 µM; against Cathepsin B, 2.41 µM; against Procathepsin L, 4.8 µM; on Cathepsin S, 1.24 µM; in the assay listed under Bos taurus, 0.162 µM.
The corresponding values for `CC(C)CC(C(=O)NCC#N)c1cccc(-c2ccc(-c3ccncc3)cc2)c1` (stereo unspecified) are 0.097 µM, 3.33 µM, 8.39 µM, 1.36 µM and 1.24 µM.
Regarding `CC(C)C[C@H](C(=O)NCC#N)c1cccc(-c2ccc3[nH]ccc3c2)c1`, 0.079 µM corresponded to half-maximal inhibition on Cathepsin K (IC50).
Regarding `CC(C)CC(C(=O)NCC#N)c1cccc(-c2ccc3[nH]ccc3c2)c1` (racemic), the IC50 was 0.052 µM against Cathepsin K; greater than 10 µM against Cathepsin B; greater than 10 µM against Procathepsin L; 0.922 µM against Cathepsin S; 0.249 µM in the assay filed under Bos taurus.
Take `CC(C)CC(C(=O)NCC#N)c1cccc(-c2ccc(C34CCN(CC3)CC4)cc2)c1` (stereo unspecified): the IC50 on Cathepsin K worked out at 0.037 µM; on Cathepsin B, 2.23 µM; on Procathepsin L, 2.24 µM; at Cathepsin S, 1.99 µM; in the assay listed under Bos taurus, 0.198 µM.
For the compound `CC(C)CC(C(=O)NCC#N)c1cccc(-c2ccc(N3CCOCC3)cc2)c1` (stereo unspecified), the IC50 is 0.638 µM against Cathepsin K, 1.74 µM against Cathepsin B, 1.59 µM against Procathepsin L and 9.42 µM against Cathepsin S.
The corresponding values for `CC(C)CC(C(=O)NCC#N)c1cccc(-c2ccc(C3CNCCN3)cc2)c1` (stereo in doubt; 44) are 0.058 µM, 1.25 µM, 0.338 µM and 0.521 µM.
The corresponding values for `CC(C)CC(C(=O)NCC#N)c1cccc(-c2ccc(N3CCN(C(=O)OC(C)(C)C)CC3)cc2)c1` (stereo unspecified) are 0.922 µM, greater than 10 µM, greater than 10 µM and 1.3 µM.
With `CC(C)CC(C(=O)NCC#N)c1cccc(-c2ccc(C3CNCCN3)cc2)c1` (stereo in doubt; 43), the IC50 at Cathepsin K was 0.216 µM; at Cathepsin B, greater than 10 µM; at Procathepsin L it was greater than 10 µM; at Cathepsin S it was greater than 10 µM; in the assay filed under Bos taurus, 4.87 µM.
As for `CC(C)CC(NC(=O)c1ccccc1)C(=O)NCC#N` (stereo unspecified), the IC50 on Cathepsin K was found to be 0.051 µM; against Cathepsin B, 1.9 µM; on Cathepsin S it was 0.041 µM.
Consider `CC(C)CC(C(=O)NCC#N)c1cccc(-c2cccnc2)c1` (stereo unspecified), for which the IC50 against Cathepsin K is 0.803 µM; against Cathepsin B, greater than 10 µM; against Procathepsin L, 5.95 µM; at Cathepsin S, 8.04 µM.
The corresponding values for `CC(C)CC(C(=O)NCC#N)c1ccc(-c2ccccc2)cc1` (stereo unspecified) are 0.79 µM, greater than 10 µM, greater than 10 µM and 3.34 µM.
The like results for `CC(C)CC(C(=O)NCC#N)c1cccc(-c2cncnc2)c1` (stereo unspecified) were, in that order, 1.04 µM, greater than 10 µM, greater than 10 µM and greater than 10 µM.
For the compound `CC(C)CC(C(=O)NCC#N)c1cccc(-c2ccc(C3CNCCO3)cc2)c1` (stereo unspecified), the IC50 was 0.614 µM against Cathepsin K; greater than 10 µM on Cathepsin B; 0.919 µM on Procathepsin L; 3.37 µM against Cathepsin S; 2.81 µM in the assay filed under Bos taurus.
With `CC[C@H](C)CC(C(=O)NCC#N)c1cccc(-c2ccc(N3CCN(C)CC3)cc2)c1` (stereo partly specified), the IC50 at Cathepsin K is 0.051 µM; on Cathepsin B, 5.79 µM; against Procathepsin L, greater than 10 µM; at Cathepsin S it was greater than 10 µM.
On to `CCCC(C(=O)NCC#N)c1cccc(-c2ccc(N3CCN(C)CC3)cc2)c1` (stereo unspecified), for which the IC50 is 0.087 µM against Cathepsin K, greater than 10 µM at Cathepsin B, greater than 10 µM on Procathepsin L and greater than 10 µM at Cathepsin S.
With `CC(C)C[C@@H](C(=O)NCC#N)c1cccc(-c2ccc3[nH]ccc3c2)c1`, at Cathepsin K, the IC50 is 0.008 µM.
Consider `CN1CCN(c2ccc(-c3cccc(C(Cc4ccccc4)C(=O)NCC#N)c3)cc2)CC1` (stereo unspecified), for which the IC50 was 1.4 µM against Cathepsin K, greater than 10 µM against Cathepsin B, 3.91 µM on Procathepsin L and greater than 10 µM at Cathepsin S.
Consider `CC(C)CC(C(=O)NCC#N)c1cccc(-c2ccccn2)c1` (stereo unspecified), for which the half-maximal inhibitory concentration (IC50) at Cathepsin K was 0.488 µM; on Cathepsin B, greater than 10 µM; at Procathepsin L, 5.58 µM; against Cathepsin S, greater than 10 µM.
In the case of `CC(C)CC(C(=O)NCC#N)c1csc(-c2ccccc2)n1` (stereo unspecified), the concentration for half-maximal inhibition (IC50) was 1.46 µM against Cathepsin K, greater than 10 µM against Cathepsin B, greater than 10 µM against Procathepsin L and greater than 10 µM against Cathepsin S.
Regarding `CN1CCN(c2ccc(-c3cccc(C(CC4CCC4)C(=O)NCC#N)c3)cc2)CC1` (stereo unspecified), the IC50 is 0.062 µM against Cathepsin K, 8.05 µM against Cathepsin B, greater than 10 µM at Procathepsin L and 2.31 µM against Cathepsin S.
The like results for `CC(C)CC(C(=O)NCC#N)c1cccc(-c2ccc(S(C)(=O)=O)cc2)c1` (stereo unspecified) were, in that order, 1.23 µM, greater than 10 µM, greater than 10 µM and 6.62 µM.
The corresponding values for `CN1CCN(c2ccc(-c3cccc(CC(=O)NCC#N)c3)cc2)CC1` are greater than 10 µM, greater than 10 µM, greater than 10 µM and greater than 10 µM.
The like results for `CC(C)CC(C(=O)N(CC#N)OC(=O)C(F)(F)F)c1cccc(-c2ccncc2)c1` (stereo unspecified) were, in that order, 0.15 µM, greater than 10 µM, 5.78 µM and 1.75 µM.
